Source: patent US12201632B2, “Levoketoconazole for treatment of congenital adrenal hyperplasia and primary aldosteronism” (Strongbridge Dublin Limited, priority 2018, dated 2025)

System: EAS associated adrenal hyperplasia no. 1 primary culture
Assay: Steroid profile by LC/MS-MS in EAS associated adrenal hyperplasia no. 1
Type: cell-based, human
Details: for 11-DOC absolute change vs ACTH stimulation with vehicle / 11-DOC percentage change vs ACTH stimulation with vehicle / 17-OHP absolute change vs ACTH stimulation with vehicle / 17-OHP percentage change vs ACTH stimulation with vehicle / Androstenedione absolute change vs ACTH stimulation with vehicle / Androstenedione percentage change vs ACTH stimulation with vehicle / Corticosterone absolute change vs ACTH stimulation with vehicle / Corticosterone percentage change vs ACTH stimulation with vehicle / Cortisol absolute change vs ACTH stimulation with vehicle / Cortisol percentage change vs ACTH stimulation with vehicle / DHEA absolute change vs ACTH stimulation with vehicle / DHEAS absolute change vs ACTH stimulation with vehicle / Prog absolute change vs ACTH stimulation with vehicle / Prog percentage change vs ACTH stimulation with vehicle / Testosterone absolute change vs ACTH stimulation with vehicle / Testosterone percentage change vs ACTH stimulation with vehicle: EAS associated adrenal hyperplasia no. 1, ACTH; for 11-DOC absolute change vs ACTH stimulation with vehicle / 11-DOC percentage change vs ACTH stimulation with vehicle / 17-OHP absolute change vs ACTH stimulation with vehicle / 17-OHP percentage change vs ACTH stimulation with vehicle / Androstenedione absolute change vs ACTH stimulation with vehicle / Androstenedione percentage change vs ACTH stimulation with vehicle / Corticosterone absolute change vs ACTH stimulation with vehicle / Corticosterone percentage change vs ACTH stimulation with vehicle / Cortisol absolute change vs ACTH stimulation with vehicle / Cortisol percentage change vs ACTH stimulation with vehicle / DHEA absolute change vs ACTH stimulation with vehicle / DHEAS absolute change vs ACTH stimulation with vehicle / Prog absolute change vs ACTH stimulation with vehicle / Prog percentage change vs ACTH stimulation with vehicle / Testosterone absolute change vs ACTH stimulation with vehicle / Testosterone percentage change vs ACTH stimulation with vehicle / 11-DOC absolute change vs control / 11-DOC percentage change vs control / 17-OHP absolute change vs control / 17-OHP percentage change vs control / Androstenedione absolute change vs control / Androstenedione percentage change vs control / Corticosterone absolute change vs control / Corticosterone percentage change vs control / Cortisol absolute change vs control / Cortisol percentage change vs control / DHEA absolute change vs control / DHEAS absolute change vs control / Prog absolute change vs control / Prog percentage change vs control / Testosterone absolute change vs control / Testosterone percentage change vs control: 3 days; for 11-DOC absolute change vs control / 11-DOC percentage change vs control / 17-OHP absolute change vs control / 17-OHP percentage change vs control / Androstenedione absolute change vs control / Androstenedione percentage change vs control / Corticosterone absolute change vs control / Corticosterone percentage change vs control / Cortisol absolute change vs control / Cortisol percentage change vs control / DHEA absolute change vs control / DHEAS absolute change vs control / Prog absolute change vs control / Prog percentage change vs control / Testosterone absolute change vs control / Testosterone percentage change vs control: EAS associated adrenal hyperplasia no. 1, Basal
Description: To obtain primary cultures, adrenal specimens (adrenocortical adenomas, adrenal hyperplasias and adrenocortical carcinomas) were collected after adrenalectomy at the department of Surgery, Erasmus University Medical Center, Rotterdam, the Netherlands, between April 2016 and May 2018. The study was conducted under guidelines that have been approved by the Medical Ethics Committee of the Erasmus Medical Center and informed consent was obtained from all patients. Immediately after surgery, specimens were minced into small pieces of 2-3 mm^3, washed in culture medium and centrifuged for 5 minutes at 600 g. The tissue was stored overnight in culture medium at 4° C., where after the tissue was centrifuged again and the supernatant was removed. Fragments were dissociated using 10-25 ml collagenase type 1 (2 mg/ml: Sigma-Aldrich), followed by incubation at 37° C. for up to two hours. Ficoll (GE healthcare) density gradient separation was used once or twice as required in order to separate contaminating red blood cells from the tumor cells. Cell viability and cell amount were counted by trypan blue exclusion. Dissociated cells were plated at a density of 10^5 cells per well. ACTH-secreting corticotroph pituitary adenoma tissue from patients with Cushing's disease (n=2) was available after transsphenoidal surgery. Single-cell suspensions of the pituitary adenoma tissues were prepared as previously described in detail.
Primary culture conditions for primary cultures were similar as described in the section ‘cell culture and compounds’, but with small adjustments: ACTH was used at a concentration of 85 pM (250 pg/mL), treatment was started 3-4 days after plating of the cells and cells were incubated for 3 days, and; for pituitary primary cultures, levoketoconazole and racemic ketoconazole were only tested at a concentration of 1 μM. Owing to a limited number of cells obtained from the specimens, not all experiments were carried out in every primary culture.
Cortisol concentrations were measured in the supernatant using a chemiluminescence immunoassay system (Immulite 2000XPi; Siemens DPC Inc., Los Angeles, Calif., USA). In addition, we carried out multi-steroid analysis by liquid chromatography/mass spectrometry (LC/MS-MS) to accurately quantify androstenedione, corticosterone, cortisol, 11-deoxycortisol, DHEA, DHEAS, progesterone, 17-hydroxyprogesterone, and testosterone. Concentrations that were tested on the LC/MS-MS were closest to 50% inhibition or maximal inhibition of cortisol as determined by the immunoassay. Steroids were quantified with respect to a calibration series, with internal standards. Steroids were quantified on a Xevo TQS LC-MS/MS (Waters Chromatography).
Statistical analysis was performed using Graphpad Prism 6.0 (Graphpad Software, San Diego, CA). Non-linear regression curve fitting program was used to calculate the half maximal inhibitory concentrations (IC50) on cortisol production. Effects of both compounds on the steroid profile were measured as absolute change compared to control and compared using the Student's t-test. When assessing differences between effects of both compounds, the percentage change was evaluated and compared in order to correct for differences in the vehicle treated control cells. Values of P<0.05 were considered statistically significant and data are presented as mean SEM.

SMILES: CC(=O)N1CCN(c2ccc(OCC3COC(Cn4ccnc4)(c4ccc(Cl)cc4Cl)O3)cc2)CC1 (racemic) [racemic ketoconazole, Ketoconazole]
- 11-DOC absolute change vs ACTH stimulation with vehicle (0.05 μM): +76.63 nmol/l
- 11-DOC percentage change vs ACTH stimulation with vehicle (0.05 μM): (+25%**)
- 17-OHP absolute change vs ACTH stimulation with vehicle (0.05 μM): +8.133 nmol/l
- 17-OHP percentage change vs ACTH stimulation with vehicle (0.05 μM): (+52%)
- Androstenedione absolute change vs ACTH stimulation with vehicle (0.05 μM): -7.475 nmol/L
- Androstenedione percentage change vs ACTH stimulation with vehicle (0.05 μM): (−39%)
- Corticosterone absolute change vs ACTH stimulation with vehicle (0.05 μM): +105.7 nmol/l
- Corticosterone percentage change vs ACTH stimulation with vehicle (0.05 μM): (+31%)
- Cortisol absolute change vs ACTH stimulation with vehicle (0.05 μM): -62.25 nmol/L
- Cortisol percentage change vs ACTH stimulation with vehicle (0.05 μM): −11%
- DHEA absolute change vs ACTH stimulation with vehicle (0.05 μM): <LLQ
- DHEAS absolute change vs ACTH stimulation with vehicle (0.05 μM): <LLQ
- Prog absolute change vs ACTH stimulation with vehicle (0.05 μM): +3.425 nmol/l
- Prog percentage change vs ACTH stimulation with vehicle (0.05 μM): +96%
- Testosterone absolute change vs ACTH stimulation with vehicle (0.05 μM): -0.1750 nmol/L
- Testosterone percentage change vs ACTH stimulation with vehicle (0.05 μM): (−28%)
- Cortisol percentage change vs ACTH stimulation with vehicle (0.05 μM, listed as RK): (−11%*)
- Prog percentage change vs ACTH stimulation with vehicle (0.05 μM, listed as RK): (+96%**)
- 11-DOC absolute change vs ACTH stimulation with vehicle (5 μM): -402.7 nmol/L
- 11-DOC percentage change vs ACTH stimulation with vehicle (5 μM): (−99%)
- 17-OHP absolute change vs ACTH stimulation with vehicle (5 μM): -28.44 nmol/L
- 17-OHP percentage change vs ACTH stimulation with vehicle (5 μM): (−90%)
- Androstenedione absolute change vs ACTH stimulation with vehicle (5 μM): -14.79 nmol/L
- Androstenedione percentage change vs ACTH stimulation with vehicle (5 μM): (−98%)
- Corticosterone absolute change vs ACTH stimulation with vehicle (5 μM): -397.6 nmol/L
- Corticosterone percentage change vs ACTH stimulation with vehicle (5 μM): (−100%)
- Cortisol absolute change vs ACTH stimulation with vehicle (5 μM): -643.5 nmol/L
- Cortisol percentage change vs ACTH stimulation with vehicle (5 μM): (−100%)
- DHEA absolute change vs ACTH stimulation with vehicle (5 μM): <LLQ
- DHEAS absolute change vs ACTH stimulation with vehicle (5 μM): <LLQ
- Prog absolute change vs ACTH stimulation with vehicle (5 μM): +39.86 nmol/l
- Prog percentage change vs ACTH stimulation with vehicle (5 μM): (+1292%)
- Testosterone absolute change vs ACTH stimulation with vehicle (5 μM): -0.4350 nmol/L
- Testosterone percentage change vs ACTH stimulation with vehicle (5 μM): (−85%)
- 11-DOC absolute change vs control (0.05 μM): -62.23 nmol/L
- 11-DOC percentage change vs control (0.05 μM): (−27%)
- 17-OHP absolute change vs control (0.05 μM): +0.6833 nmol/l
- 17-OHP percentage change vs control (0.05 μM): (+7.5%)
- Androstenedione absolute change vs control (0.05 μM): -5.850 nmol/L
- Androstenedione percentage change vs control (0.05 μM): (−55%)
- Corticosterone absolute change vs control (0.05 μM): -68.60 nmol/L
- Corticosterone percentage change vs control (0.05 μM): (−32%)
- Cortisol absolute change vs control (0.05 μM): -86.78 nmol/L
- Cortisol percentage change vs control (0.05 μM): (−57%)
- DHEA absolute change vs control (0.05 μM): <LLQ
- DHEAS absolute change vs control (0.05 μM): <LLQ
- Prog absolute change vs control (0.05 μM): +4.475 nmol/l
- Prog percentage change vs control (0.05 μM): (+108%)
- Testosterone absolute change vs control (0.05 μM): -0.1500 nmol/L
- Testosterone percentage change vs control (0.05 μM): (−32%)
- 11-DOC absolute change vs control (5 μM): -270.7 nmol/L
- 11-DOC percentage change vs control (5 μM): (−98%)
- 17-OHP absolute change vs control (5 μM): -15.07 nmol/L
- 17-OHP percentage change vs control (5 μM): (−92%)
- Androstenedione absolute change vs control (5 μM): -8.219 nmol/L
- Androstenedione percentage change vs control (5 μM): (−94%)
- Corticosterone absolute change vs control (5 μM): -166.5 nmol/L
- Corticosterone percentage change vs control (5 μM): (−98%)
- Cortisol absolute change vs control (5 μM): -165.2 nmol/L
- Cortisol percentage change vs control (5 μM): (−99%)
- DHEA absolute change vs control (5 μM): <LLQ
- DHEAS absolute change vs control (5 μM): <LLQ
- Prog absolute change vs control (5 μM): +19.89 nmol/l
- Prog percentage change vs control (5 μM): (+537%***)
- Testosterone absolute change vs control (5 μM): -0.2688 nmol/L
- Testosterone percentage change vs control (5 μM): (−66%)
- total change of steroids (EAS associated adrenal hyperplasia no. 1, basal condition): -218.5 nmol/L
- total sum of change of the steroids: increase (EAS associated adrenal hyperplasia no. 1, under ACTH stimulation): 124.0 nmol/L
